{"source": "patent US10533231B2", "about": "“Artificial bioluminescent enzyme” (NATIONAL INSTITUTE OF ADVANCED INDUSTRIAL SCIENCE AND …, priority 2012, dated 2020)", "data": [{"tested_on": "COS-7 cells", "experiment": "Enzymatic activity confirmation of ALuc (section 3-1, 3-2)", "format": "cell-based, African monkey", "details": "vs conventional copepod luciferases", "procedure": "First, using a known lipid reagent for gene introduction, an expression vector encoding ALuc is introduced into African monkey-derived COS-7 cells; as a control, an expression vector having a known GLuc without any mutation into the cells is also introduced in the same manner. At a predetermined time (from 10 to 20 hours, for example, 16 hours) after the introduction of the vector, a cell lysate is prepared using a known lysis reagent.\nThereafter, the cell lysate is mixed with a known substrate solution containing coelenterazine, and its color intensity, temporal stability in luminescence, etc., are measured.\nThe luminescence intensity may be found by measuring the intensity at a specific wavelength using a known luminescence spectrophotometer after addition of a known substrate. By performing the measurement every minute, the temporal stability in luminescence can be evaluated. To measure a shift to a longer wavelength, scanning of the entire wavelength is necessary.", "values": [{"molecule": "ALuc21: artificial luciferase, SEQ ID NO: 26 (protein, Synthetic ALuc21) MMGIKVLFALICFALVQANATINEEDIDLVAIGGSFATTDLETDLFTIVEDMNVISRDTDVDANRADRGRRGKLPGKKLPLEVLKELEANAQKAGCTRGCLICLSHIKCTAKMKKWLPGRCESWEGDKETGQGGIGEAIVDIPEIPGFKDLEPMEQFIAQVDLCVDCTTGCLKGLANVKCSDLLKKWLPSRCATFASKIQAQVDKIKGAGGS", "luminescence stability (general statement)": "remarkably stable luminescence signals"}, {"molecule": "ALuc15: artificial luciferase, SEQ ID NO: 12 (protein, Synthetic ALuc15) MMGIKVLFALICFALVQANPTENKDDIDIVGVEGKFGTTDLETDLFTIVEDMNVISRDTDVDANRADRGKLPGKKLPLEVLKELEANAQKAGCTRGCLICLSHIKCTAKMKKWLPGRCESWEGDKETGQGGIGEAIVDIPEIPGFKDLEPMEQFIAQVDLCVDCTTGCLKGLANVKCSDLLKKWLPSRCATFASKIQAQVDKIKGAGGS", "luminescence stability (general statement)": "remarkably stable luminescence signals"}, {"molecule": "ALuc26: artificial luciferase, SEQ ID NO: 28 (protein, Synthetic Aluc26) MMGVKLIFAVLCVAVAQANATINENFEDIDLVAIGGSFADLETDLFTIVEDMNVISRDTDVDANRGGRGRRGKLPGKKLPLEVLKELEANAQKAGCTRGCLICLSHIKCTAKMKKWLPGRCESWEGDKETGQGGIGEAIVDIPEIPGFKNLAPMEQFIAQVDLCADCTTGCLKGLANVKCSNLLKKWLPSRCAGFANKIQAQVDTIKGLGGS", "luminescence stability (general statement)": "remarkably stable luminescence signals"}, {"molecule": "ALuc27: artificial luciferase, SEQ ID NO: 29 (protein, Synthetic ALuc27) MMGVKLIFAVLCVAVAQANATINENFEDIDLVAIGGSFADLETDLFTIVEDMNVISRDTDVDANRGGRGRRGKLPGKKLPLEVLKELEANAQKAGCTRGCLICLSHIKCTAKMKKWLPGRCESWEGDKETGQGGIGEAIVDIPEIPGFKFLAPMEQFIAQVDLCADCTTGCLKGLANVFCSFLLKKWLPSRCAGFAFKIQAQVDTIKGLGGS", "luminescence stability (general statement)": "remarkably stable luminescence signals"}, {"molecule": "ALuc29: artificial luciferase, SEQ ID NO: 31 (protein, Synthetic ALuc29) MMGVKLIFAVLCVAVAQANATINENFEDIDLVAIGGSFADLETDLFTIVEDMNVISRDTDVDANRGGRGRRGKLPGKKLPLEVLKELEANAQKAGCTRGCLICLSHIKCTAKMKKWLPGRCESWEGDKETGQGGIGEAIVDIPEIPGFKWLAPMEQFIAQVDLCADCTTGCLKGLANVWCSWLLKKWLPSRCAGFAWKIQAQVDTIKGLGGS", "luminescence stability (general statement)": "remarkably stable luminescence signals"}, {"molecule": "ALuc28: artificial luciferase, SEQ ID NO: 30 (protein, Synthetic ALuc28) MMGVKLIFAVLCVAVAQANATINENFEDIDLVAIGGSFADLETDLFTIVEDMNVISRDTDVDANRGGRGRRGKLPGKKLPLEVLKELEANAQKAGCTRGCLICLSHIKCTAKMKKWLPGRCESWEGDKETGQGGIGEAIVDIPEIPGFKYLAPMEQFIAQVDLCADCTTGCLKGLANVYCSYLLKKWLPSRCAGFAYKIQAQVDTIKGLGGS", "luminescence stability (general statement)": "remarkably stable luminescence signals"}, {"molecule": "ALuc19: artificial luciferase, SEQ ID NO: 25 (protein, Synthetic ALuc19) MMGIKVLFALICFALVQANPTENKDDIDIVGVEGKFGTTDLETDLFTIVEDMNVISRDTDVDANRADRGRRGRKLPGKKLPKEVLKILEANAQRAGCHRGCLICLSHIKCTAKMKQWLPGRCESWEGDKETGQGGIGGPIVDIGVLGPEIPGFKDLEPMEQFIAQVDLCVDCTTGCLKGLANVKCSDLLKKWLPSRCATFASKIQAQVDKIKGAGGS", "luminescence stability (general statement)": "remarkably stable luminescence signals"}, {"molecule": "ALuc17: artificial luciferase, SEQ ID NO: 24 (protein, Synthetic ALuc17) MMGIKVLFALICFALVQANPTENKDDIDIVGVEGKFGTTDLETDLFTIVEDMNVISRDTDVDANRADRGRRGKMPGKKLPKAVLIELEANAQKAGCHRGCLICLSHIKCTAKMKEWLPGRCESWGGDKETGQAGIVGAIVDIPEIPGFKDLEPMEQFIAQVDLCVDCTTGCLKGLANVKCSDLLKKWLPSRCATFASKIQAQVDKIKGAGGS", "luminescence stability (general statement)": "remarkably stable luminescence signals"}, {"molecule": "ALuc18: artificial luciferase, SEQ ID NO: 14 (protein, Synthetic ALuc18) MMGIKVLFALICFALVQANPTENKDDIDIVGVEGKFGTTDLETDLFTIVEDMNVISRDTDVDANRADRGRRGHGGLPGKKMPLEVLLELEANAQRAGCTRGCLICLSKIKCTAKMKKWLPGRCESWAGDKETGQGGITEEETVDIPEIPGFKDLEPMEQFIAQVDLCVDCTTGCLKGLANVKCSDLLKKWLPSRCATFASKIQAQVDKIKGAGGS", "luminescence stability (general statement)": "remarkably stable luminescence signals"}]}, {"tested_on": "COS-7 cells", "experiment": "Comparison of luminescence intensity of ALucs (Example 1-2)", "format": "cell-based, African green monkey", "details": "COS-7 cultured overnight, Promega assay solution, LAS-4000", "description": "The artificial luciferase (ALuc) genes synthesized by the above process were subcloned into mammalian cell expression vectors (pcDNA3.1 (+)). Each expression vector was transfected with African green monkey kidney-derived COS-7 cells, and the luminescence intensity, luminescence stability, and red-shifted degree of artificial luciferases (ALucs) were compared (FIGS. 2 to 5).\nFirst, the luminescence intensity of artificial luciferases (ALucs) was compared (FIG. 2). For the comparison, COS-7 cells containing a vector encoding each luciferase were cultured overnight, and then the relative luminescence intensity was measured by using an assay solution, which is a mixture of a cell lysis solution and a substrate, produced by Promega, and a luminescence image analyzer (LAS-4000).", "values": [{"molecule": "ALuc15: artificial luciferase, SEQ ID NO: 12 (protein, Synthetic ALuc15) MMGIKVLFALICFALVQANPTENKDDIDIVGVEGKFGTTDLETDLFTIVEDMNVISRDTDVDANRADRGKLPGKKLPLEVLKELEANAQKAGCTRGCLICLSHIKCTAKMKKWLPGRCESWEGDKETGQGGIGEAIVDIPEIPGFKDLEPMEQFIAQVDLCVDCTTGCLKGLANVKCSDLLKKWLPSRCATFASKIQAQVDKIKGAGGS", "luminescence intensity higher than that of conventional GLuc, Renilla luciferase and MpLuc4": "about 50 folds"}, {"molecule": "ALuc10: artificial luciferase, SEQ ID NO: 11 (protein, Synthetic ALuc10) MMEIQVLFALICFALVQANPTENKDDIDIVGVEGKFGTTDLETDLFTIVEDMNVISRDTNLANSDADRGKLPGKKLPLEVLKELEANAQKAGCTRGCLICLSHIKCTAKMKKWLPGRCESWEGDKETGQGGIGEAIVDIPEIPGFKDLEPMEQFIAQVDLCVDCTTGCLKGLANVKCSDLLKKWLPSRCATFASKIQAQVDKIKGAGGS", "luminescence intensity higher than that of conventional GLuc, Renilla luciferase and MpLuc4": "about 50 folds"}, {"molecule": "ALuc18: artificial luciferase, SEQ ID NO: 14 (protein, Synthetic ALuc18) MMGIKVLFALICFALVQANPTENKDDIDIVGVEGKFGTTDLETDLFTIVEDMNVISRDTDVDANRADRGRRGHGGLPGKKMPLEVLLELEANAQRAGCTRGCLICLSKIKCTAKMKKWLPGRCESWAGDKETGQGGITEEETVDIPEIPGFKDLEPMEQFIAQVDLCVDCTTGCLKGLANVKCSDLLKKWLPSRCATFASKIQAQVDKIKGAGGS", "luminescence intensity higher than that of conventional GLuc, Renilla luciferase and MpLuc4": "about 50 folds"}]}, {"tested_on": "artificial luciferase (ALuc)", "experiment": "Effects of heavy metal ions as additive for assay buffer (Example 2-3)", "format": "cell-based", "details": "1 ppm in HBSS buffer after C3 lysis", "procedure": "This example examined the effects of a heavy metal ion as an additive for an assay buffer (FIG. 25). […] After 16-hour incubation in a CO2 incubator, 50 μL of a C3 solution was added to each well to allow for cell lysis for 20 minutes. 1 ppm of each type of heavy metal ion shown in FIG. 25 and 50 μL of a substrate-containing HBSS buffer were added to the lysate simultaneously, and the relative luminescence intensities were immediately measured with an LAS-4000. After the substrate-containing assay buffer was further added, the luminescence at the 8- and 16-minute point was measured to examine the luminescence stability.", "values": [{"molecule": "[Zn+2]", "note": "[Zn(II)]", "comprehensive evaluation of luminescence intensity and stability": "excellent additives"}, {"molecule": "[Mo]", "note": "[Mo(VI)]", "comprehensive evaluation of luminescence intensity and stability": "excellent additives"}, {"molecule": "[Al+3]", "note": "[Al(III)]", "comprehensive evaluation of luminescence intensity and stability": "excellent additives", "effect of heavy metal additive on luminescence intensity": "suitable to be added to C3 and HBSS"}, {"molecule": "[Fe+3]", "note": "[Fe(III)]", "comprehensive evaluation of luminescence intensity and stability": "excellent additives", "effect of heavy metal additive on luminescence intensity": "suitable to be added to C3 and HBSS"}, {"molecule": "[Ca+2]", "note": "[Ca(II)]", "effect of heavy metal additive on luminescence intensity": "suitable to be added to C3 and HBSS"}, {"molecule": "[Cu+2]", "note": "[Cu(II)]", "comprehensive evaluation of luminescence intensity and stability": "excellent additives", "effect of heavy metal additive on luminescence intensity": "suitable to be added to C3 and HBSS"}, {"molecule": "[Ni+2]", "note": "[Ni(II)]", "effect of heavy metal additive on luminescence intensity": "significantly decrease the luminescence intensity"}, {"molecule": "[Co+2]", "note": "[Co(II)]", "effect of heavy metal additive on luminescence intensity": "significantly decrease the luminescence intensity"}, {"molecule": "[Mg+2]", "note": "[Mg(II)]", "effect of heavy metal additive on luminescence intensity": "suitable to be added to C3 and HBSS"}, {"molecule": "[Cd+2]", "note": "[Cd(II)]", "effect of heavy metal additive on luminescence intensity": "significantly decrease the luminescence intensity"}]}]}
